Measurements reported in ChEMBL document CHEMBL4613209, “Quinolone hybrids and their anti-cancer activities: An overview” (Eur J Med Chem, 2019).
pIC50: −log10 of the molar value.

tested on: MCF7; assay: Cytotoxicity against human MCF7 cells assessed as reduction in cell viability after 48 hrs by MTT assay; type: functional, cell-based; settings: MCF7, 48 h

Compound	pIC50
COc1ccc(Cn2cc(Cn3c4ccccc4c(=O)c4cc(OC)ccc43)nn2)cc1	4.78 to 4.96
COc1ccc2c(c1)c(=O)c1ccccc1n2Cc1cn(Cc2cc(OC)c(OC)c(OC)c2)nn1	< 4.00
COc1cc(Cn2cc(Cn3c4ccccc4c(=O)c4cccc(OC)c43)nn2)cc(OC)c1OC	< 4.00
COc1cc(Cn2cc(Cn3c4ccccc4c(=O)c4cc(Cl)ccc43)nn2)cc(OC)c1OC	< 4.00
COc1cc(Cn2cc(Cn3c4ccccc4c(=O)c4cc(Br)ccc43)nn2)cc(OC)c1OC	< 4.00
COc1cc(Cn2cc(Cn3c4ccccc4c(=O)c4ccccc43)nn2)cc(OC)c1OC	< 4.00
COc1cc(Cn2cc(Cn3c4ccccc4c(=O)c4cccc(F)c43)nn2)cc(OC)c1OC	< 4.00
CCc1ccc2c(c1)c(=O)c1ccccc1n2Cc1cn(Cc2cc(OC)c(OC)c(OC)c2)nn1	< 4.00

tested on: A549; assay: Antiproliferative activity against human A549 cells by CCK8 assay; type: functional, cell-based; settings: not given

Compound	pIC50
C[C@H]1COc2c(N3CCN(C)CC3)c(F)cc3c(=O)c(C(=O)NCc4cn(CCCCCC(=O)O)nn4)cn1c23	4.78 to 5.11
C[C@H]1COc2c(N3CCN(C)CC3)c(F)cc3c(=O)c(C(=O)NCc4cn(CCCCCCC(=O)O)nn4)cn1c23	4.78 to 5.11
C[C@H]1COc2c(N3CCN(C)CC3)c(F)cc3c(=O)c(C(=O)NCc4cn(CCCCCCCC(=O)O)nn4)cn1c23	4.78 to 5.11
C[C@H]1COc2c(N3CCN(C)CC3)c(F)cc3c(=O)c(C(=O)O)cn1c23 [LEVOFLOXACIN]	4.00 to 4.19

tested on: HepG2; assay: Antiproliferative activity against human HepG2 cells by CCK8 assay; type: functional, cell-based; settings: not given

Compound	pIC50
C[C@H]1COc2c(N3CCN(C)CC3)c(F)cc3c(=O)c(C(=O)NCc4cn(CCCCCC(=O)O)nn4)cn1c23	4.78 to 5.11
C[C@H]1COc2c(N3CCN(C)CC3)c(F)cc3c(=O)c(C(=O)NCc4cn(CCCCCCC(=O)O)nn4)cn1c23	4.78 to 5.11
C[C@H]1COc2c(N3CCN(C)CC3)c(F)cc3c(=O)c(C(=O)NCc4cn(CCCCCCCC(=O)O)nn4)cn1c23	4.78 to 5.11
C[C@H]1COc2c(N3CCN(C)CC3)c(F)cc3c(=O)c(C(=O)O)cn1c23 [LEVOFLOXACIN]	4.00 to 4.19

tested on: MCF7; assay: Antiproliferative activity against human MCF7 cells by CCK8 assay; type: functional, cell-based; settings: not given

Compound	pIC50
C[C@H]1COc2c(N3CCN(C)CC3)c(F)cc3c(=O)c(C(=O)NCc4cn(CCCCCC(=O)O)nn4)cn1c23	4.78 to 5.11
C[C@H]1COc2c(N3CCN(C)CC3)c(F)cc3c(=O)c(C(=O)NCc4cn(CCCCCCC(=O)O)nn4)cn1c23	4.78 to 5.11
C[C@H]1COc2c(N3CCN(C)CC3)c(F)cc3c(=O)c(C(=O)NCc4cn(CCCCCCCC(=O)O)nn4)cn1c23	4.78 to 5.11
C[C@H]1COc2c(N3CCN(C)CC3)c(F)cc3c(=O)c(C(=O)O)cn1c23 [LEVOFLOXACIN]	4.00 to 4.19

tested on: PC-3; assay: Antiproliferative activity against human PC3 cells by CCK8 assay; type: functional, cell-based; settings: not given

Compound	pIC50
C[C@H]1COc2c(N3CCN(C)CC3)c(F)cc3c(=O)c(C(=O)NCc4cn(CCCCCC(=O)O)nn4)cn1c23	4.78 to 5.11
C[C@H]1COc2c(N3CCN(C)CC3)c(F)cc3c(=O)c(C(=O)NCc4cn(CCCCCCC(=O)O)nn4)cn1c23	4.78 to 5.11
C[C@H]1COc2c(N3CCN(C)CC3)c(F)cc3c(=O)c(C(=O)NCc4cn(CCCCCCCC(=O)O)nn4)cn1c23	4.78 to 5.11
C[C@H]1COc2c(N3CCN(C)CC3)c(F)cc3c(=O)c(C(=O)O)cn1c23 [LEVOFLOXACIN]	4.00 to 4.19

tested on: HeLa; assay: Antiproliferative activity against human HeLa cells by CCK8 assay; type: functional, cell-based; settings: not given

Compound	pIC50
C[C@H]1COc2c(N3CCN(C)CC3)c(F)cc3c(=O)c(C(=O)NCc4cn(CCCCCC(=O)O)nn4)cn1c23	4.78 to 5.11
C[C@H]1COc2c(N3CCN(C)CC3)c(F)cc3c(=O)c(C(=O)NCc4cn(CCCCCCC(=O)O)nn4)cn1c23	4.78 to 5.11
C[C@H]1COc2c(N3CCN(C)CC3)c(F)cc3c(=O)c(C(=O)NCc4cn(CCCCCCCC(=O)O)nn4)cn1c23	4.78 to 5.11
C[C@H]1COc2c(N3CCN(C)CC3)c(F)cc3c(=O)c(C(=O)O)cn1c23 [LEVOFLOXACIN]	4.00 to 4.19

tested on: MCF-10A; assay: Antiproliferative activity against human MCF10A cells by CCK8 assay; type: cell-based; settings: not given

Compound	pIC50
C[C@H]1COc2c(N3CCN(C)CC3)c(F)cc3c(=O)c(C(=O)NCc4cn(CCCCCC(=O)O)nn4)cn1c23	< 4.00
C[C@H]1COc2c(N3CCN(C)CC3)c(F)cc3c(=O)c(C(=O)NCc4cn(CCCCCCC(=O)O)nn4)cn1c23	< 4.00
C[C@H]1COc2c(N3CCN(C)CC3)c(F)cc3c(=O)c(C(=O)NCc4cn(CCCCCCCC(=O)O)nn4)cn1c23	< 4.00
C[C@H]1COc2c(N3CCN(C)CC3)c(F)cc3c(=O)c(C(=O)O)cn1c23 [LEVOFLOXACIN]	4.60

tested on: MCF7; assay: Cytotoxicity against human MCF7 cells assessed as reduction in cell viability; type: functional, cell-based; settings: not given

Compound	pIC50
O=C(/C=C(O)/C=C/c1cc2ccccc2[nH]c1=O)/C=C/c1cc2ccccc2[nH]c1=O	4.16

tested on: T47D; assay: Cytotoxicity against human T47D cells assessed as reduction in cell viability after 48 hrs by MTT assay; type: functional, cell-based; settings: not given

Compound	pIC50
COc1ccc(Cn2cc(Cn3c4ccccc4c(=O)c4cc(OC)ccc43)nn2)cc1	4.78 to 4.96
COc1ccc2c(c1)c(=O)c1ccccc1n2Cc1cn(Cc2cc(OC)c(OC)c(OC)c2)nn1	< 4.00
COc1cc(Cn2cc(Cn3c4ccccc4c(=O)c4cccc(OC)c43)nn2)cc(OC)c1OC	< 4.00
COc1cc(Cn2cc(Cn3c4ccccc4c(=O)c4cc(Cl)ccc43)nn2)cc(OC)c1OC	< 4.00
COc1cc(Cn2cc(Cn3c4ccccc4c(=O)c4cc(Br)ccc43)nn2)cc(OC)c1OC	< 4.00
COc1cc(Cn2cc(Cn3c4ccccc4c(=O)c4ccccc43)nn2)cc(OC)c1OC	< 4.00
COc1cc(Cn2cc(Cn3c4ccccc4c(=O)c4cccc(F)c43)nn2)cc(OC)c1OC	< 4.00
CCc1ccc2c(c1)c(=O)c1ccccc1n2Cc1cn(Cc2cc(OC)c(OC)c(OC)c2)nn1	< 4.00

tested on: MDA-MB-231; assay: Cytotoxicity against human MDA-MB-231 cells assessed as reduction in cell viability after 48 hrs by MTT assay; type: functional, cell-based; settings: MDA-MB-231, 48 h

Compound	pIC50
COc1ccc(Cn2cc(Cn3c4ccccc4c(=O)c4cc(OC)ccc43)nn2)cc1	4.78 to 4.96
COc1ccc2c(c1)c(=O)c1ccccc1n2Cc1cn(Cc2cc(OC)c(OC)c(OC)c2)nn1	< 4.00
COc1cc(Cn2cc(Cn3c4ccccc4c(=O)c4cccc(OC)c43)nn2)cc(OC)c1OC	< 4.00
COc1cc(Cn2cc(Cn3c4ccccc4c(=O)c4cc(Cl)ccc43)nn2)cc(OC)c1OC	< 4.00
COc1cc(Cn2cc(Cn3c4ccccc4c(=O)c4cc(Br)ccc43)nn2)cc(OC)c1OC	< 4.00
COc1cc(Cn2cc(Cn3c4ccccc4c(=O)c4ccccc43)nn2)cc(OC)c1OC	< 4.00
COc1cc(Cn2cc(Cn3c4ccccc4c(=O)c4cccc(F)c43)nn2)cc(OC)c1OC	< 4.00
CCc1ccc2c(c1)c(=O)c1ccccc1n2Cc1cn(Cc2cc(OC)c(OC)c(OC)c2)nn1	< 4.00

target: RAC-alpha serine/threonine-protein kinase (Homo sapiens, UniProt P31749); assay: Inhibition of PKBalpha (unknown origin); settings: not given
Sequence (P31749 whole entry): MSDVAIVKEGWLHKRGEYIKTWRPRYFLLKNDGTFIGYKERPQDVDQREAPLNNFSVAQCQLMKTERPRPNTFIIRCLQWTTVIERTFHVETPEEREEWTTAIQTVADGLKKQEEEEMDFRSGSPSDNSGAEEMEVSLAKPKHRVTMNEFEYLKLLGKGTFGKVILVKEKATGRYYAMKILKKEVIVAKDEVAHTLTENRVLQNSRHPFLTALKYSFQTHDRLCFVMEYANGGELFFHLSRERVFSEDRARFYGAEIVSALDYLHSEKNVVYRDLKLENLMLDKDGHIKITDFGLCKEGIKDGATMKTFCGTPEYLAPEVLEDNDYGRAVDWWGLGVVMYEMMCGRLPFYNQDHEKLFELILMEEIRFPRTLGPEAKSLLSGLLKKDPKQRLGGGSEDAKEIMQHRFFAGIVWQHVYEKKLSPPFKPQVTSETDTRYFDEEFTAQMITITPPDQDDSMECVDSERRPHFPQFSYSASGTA

Compound	pIC50
O=C(/C=C/c1nc2ccccc2[nH]1)c1c(O)nc2ccc(Cl)cc2c1-c1ccccc1	4.35 to 5.79
O=C(/C=C/c1nc2cc(F)c(F)cc2[nH]1)c1c(-c2ccc(F)cc2)c2cc(Cl)ccc2[nH]c1=O	4.35 to 5.79

target: RAC-beta serine/threonine-protein kinase (Homo sapiens, UniProt P31751); assay: Inhibition of PKBbeta (unknown origin); settings: not given
Sequence (P31751 whole entry): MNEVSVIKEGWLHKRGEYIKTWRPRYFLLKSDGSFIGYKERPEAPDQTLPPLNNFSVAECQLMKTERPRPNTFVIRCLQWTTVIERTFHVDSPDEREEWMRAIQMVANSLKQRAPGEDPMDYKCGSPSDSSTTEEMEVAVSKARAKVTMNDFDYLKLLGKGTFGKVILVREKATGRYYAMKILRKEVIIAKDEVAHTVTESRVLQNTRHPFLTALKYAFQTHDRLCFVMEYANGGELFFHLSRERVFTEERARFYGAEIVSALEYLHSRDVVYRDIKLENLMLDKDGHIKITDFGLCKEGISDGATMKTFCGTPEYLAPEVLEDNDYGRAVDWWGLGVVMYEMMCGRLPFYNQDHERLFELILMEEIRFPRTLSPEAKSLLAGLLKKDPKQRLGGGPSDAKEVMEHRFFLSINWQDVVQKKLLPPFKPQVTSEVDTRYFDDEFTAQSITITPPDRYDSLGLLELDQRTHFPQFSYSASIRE

Compound	pIC50
O=C(/C=C/c1nc2ccccc2[nH]1)c1c(O)nc2ccc(Cl)cc2c1-c1ccccc1	4.35 to 5.79
O=C(/C=C/c1nc2cc(F)c(F)cc2[nH]1)c1c(-c2ccc(F)cc2)c2cc(Cl)ccc2[nH]c1=O	4.35 to 5.79

target: RAC-gamma serine/threonine-protein kinase (Homo sapiens, UniProt Q9Y243); assay: Inhibition of PKBgamma (unknown origin); settings: not given
Sequence (Q9Y243 whole entry): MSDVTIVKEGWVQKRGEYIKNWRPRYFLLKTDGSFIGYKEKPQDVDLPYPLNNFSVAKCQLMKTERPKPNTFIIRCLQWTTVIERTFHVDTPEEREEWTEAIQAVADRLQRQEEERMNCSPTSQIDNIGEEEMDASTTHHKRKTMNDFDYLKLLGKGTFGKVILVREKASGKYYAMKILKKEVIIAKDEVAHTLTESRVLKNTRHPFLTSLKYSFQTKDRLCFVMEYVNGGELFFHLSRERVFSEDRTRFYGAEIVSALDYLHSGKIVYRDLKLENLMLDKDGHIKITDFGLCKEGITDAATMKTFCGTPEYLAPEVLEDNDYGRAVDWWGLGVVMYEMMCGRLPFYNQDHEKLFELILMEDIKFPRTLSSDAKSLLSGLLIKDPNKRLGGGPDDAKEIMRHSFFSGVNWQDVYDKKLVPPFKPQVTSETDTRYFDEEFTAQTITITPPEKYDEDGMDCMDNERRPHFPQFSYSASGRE

Compound	pIC50
O=C(/C=C/c1nc2ccccc2[nH]1)c1c(O)nc2ccc(Cl)cc2c1-c1ccccc1	4.35 to 5.79
O=C(/C=C/c1nc2cc(F)c(F)cc2[nH]1)c1c(-c2ccc(F)cc2)c2cc(Cl)ccc2[nH]c1=O	4.35 to 5.79

target: T1, Inhibitor of nuclear factor kappa-B kinase subunit alpha (Homo sapiens, UniProt O15111); assay: Inhibition of IKKalpha (unknown origin); settings: not given
T1 sequence (O15111 whole entry): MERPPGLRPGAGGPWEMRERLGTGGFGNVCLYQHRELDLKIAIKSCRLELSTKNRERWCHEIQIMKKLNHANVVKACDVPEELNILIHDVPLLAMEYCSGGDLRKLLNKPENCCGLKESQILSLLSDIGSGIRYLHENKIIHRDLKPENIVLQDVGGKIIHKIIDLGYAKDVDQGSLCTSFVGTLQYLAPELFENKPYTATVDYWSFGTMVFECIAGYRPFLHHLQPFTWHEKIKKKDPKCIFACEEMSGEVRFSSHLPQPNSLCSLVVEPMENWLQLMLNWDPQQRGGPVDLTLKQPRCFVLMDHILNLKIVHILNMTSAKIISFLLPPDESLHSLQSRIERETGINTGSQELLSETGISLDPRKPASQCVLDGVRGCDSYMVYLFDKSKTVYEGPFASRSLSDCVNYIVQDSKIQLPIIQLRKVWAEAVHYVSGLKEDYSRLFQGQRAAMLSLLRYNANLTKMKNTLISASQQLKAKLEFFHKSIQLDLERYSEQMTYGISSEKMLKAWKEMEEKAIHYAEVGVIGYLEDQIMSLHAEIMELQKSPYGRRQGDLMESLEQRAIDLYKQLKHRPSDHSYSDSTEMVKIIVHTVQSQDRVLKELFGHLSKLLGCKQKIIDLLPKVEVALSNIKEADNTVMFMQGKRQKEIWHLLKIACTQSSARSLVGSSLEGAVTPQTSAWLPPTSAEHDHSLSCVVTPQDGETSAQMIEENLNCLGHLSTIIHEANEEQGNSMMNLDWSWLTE

Compound	pIC50
O=C(/C=C/c1nc2ccccc2[nH]1)c1c(O)nc2ccc(Cl)cc2c1-c1ccccc1	4.35 to 5.79
O=C(/C=C/c1nc2cc(F)c(F)cc2[nH]1)c1c(-c2ccc(F)cc2)c2cc(Cl)ccc2[nH]c1=O	4.35 to 5.79

target: T2, Inhibitor of nuclear factor kappa-B kinase subunit beta (Homo sapiens, UniProt O14920); assay: Inhibition of IKKbeta (unknown origin); settings: not given
T2 sequence (O14920 whole entry): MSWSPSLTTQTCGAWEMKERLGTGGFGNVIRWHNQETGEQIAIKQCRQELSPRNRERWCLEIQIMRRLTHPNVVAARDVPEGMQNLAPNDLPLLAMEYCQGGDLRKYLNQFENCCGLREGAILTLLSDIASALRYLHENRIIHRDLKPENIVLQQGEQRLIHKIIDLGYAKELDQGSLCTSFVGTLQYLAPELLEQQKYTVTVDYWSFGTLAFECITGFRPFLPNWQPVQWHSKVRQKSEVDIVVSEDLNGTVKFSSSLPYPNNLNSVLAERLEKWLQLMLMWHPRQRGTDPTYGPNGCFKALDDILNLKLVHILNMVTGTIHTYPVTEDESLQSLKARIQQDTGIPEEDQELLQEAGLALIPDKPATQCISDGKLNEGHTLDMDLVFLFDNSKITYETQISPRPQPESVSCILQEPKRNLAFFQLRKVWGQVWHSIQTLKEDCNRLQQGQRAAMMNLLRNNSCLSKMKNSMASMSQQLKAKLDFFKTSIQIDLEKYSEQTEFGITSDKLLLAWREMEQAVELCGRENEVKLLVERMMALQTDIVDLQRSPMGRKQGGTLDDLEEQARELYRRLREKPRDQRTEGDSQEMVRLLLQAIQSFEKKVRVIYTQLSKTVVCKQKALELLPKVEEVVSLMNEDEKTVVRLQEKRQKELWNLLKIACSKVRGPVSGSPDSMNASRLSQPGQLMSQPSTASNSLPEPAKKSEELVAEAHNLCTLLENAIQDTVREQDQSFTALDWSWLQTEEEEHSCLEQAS

Compound	pIC50
O=C(/C=C/c1nc2ccccc2[nH]1)c1c(O)nc2ccc(Cl)cc2c1-c1ccccc1	4.35 to 5.79
O=C(/C=C/c1nc2cc(F)c(F)cc2[nH]1)c1c(-c2ccc(F)cc2)c2cc(Cl)ccc2[nH]c1=O	4.35 to 5.79

tested on: A549; assay: Cytotoxicity against human A549 cells assessed as reduction in cell viability; type: functional, cell-based; settings: not given

Compound	pIC50
O=C(/C=C(O)/C=C/c1cc2ccccc2[nH]c1=O)/C=C/c1cc2ccccc2[nH]c1=O	4.50
